For the experiment, the target named is FKBP12 (Homo sapiens, UniProt P62942). The experiment is described as follows: Fluorescence Polarization (FP) Assay of FKBP12 Binding. Particulars: for inhibition at 1 µM: 1 μM compound, 100 nM fluorescent ligand, 200 nM FKBP12, read-out: % FP inhibition at 1 μM; for Ki: rotamase Ki derived from FP assay. How it is done:
Fluorescence Polarization (FP) Assay of FKBP12 Binding
The buffer (25 mM HEPES, 100 mM sodium chloride, pH 7.5) with pre-mixed enzyme and fluorescent ligand is distributed into wells (190 μL/well). Inhibitors are added as 10 μL of a 10% dimethylsulfoxide solution in the same buffer. FP is measured with an excitation wavelength of 485 nm and emission wavelength of 520 nm.
Background: Fluorescence polarisation rises when a labelled molecule tumbles more slowly, as on binding a larger partner.

Like-named read-outs stand apart in the source and are kept apart here.

Chain of FKBP12 (P62942 whole entry, species assumed): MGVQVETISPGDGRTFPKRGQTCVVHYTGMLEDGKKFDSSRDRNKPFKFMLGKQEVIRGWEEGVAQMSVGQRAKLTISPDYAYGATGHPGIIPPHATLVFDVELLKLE

The term inhibition denotes the share of the control response that was lost under treatment. By Ki is commonly meant a measure of affinity in units of concentration, obtained from inhibition or displacement. Low values mean a stronger hold on the target, high ones a looser hold on the target. In the case of `COc1cc(C(=O)C(=O)N2[C@@H]3CC[C@H]2C(=O)N(CCCc2ccccc2)C3)cc(OC)c1OC` [Example 1, (1S,5R)-8-(3,4,5-Trimethoxyphenyl)oxalyl-3,8-diaza-3-(3-phenylpropyl)bicyclo[3.2.1]octan-2-one], for the setting “Table 1”, the inhibition at 1 µM was 34% and the inhibitory constant (Ki) was determined as 699 nM.
As for `COc1ccc(CCN2CC3CCC(C2=O)N3C(=O)C(=O)c2cc(OC)c(OC)c(OC)c2)cc1OC` [Example 2, (1S,5R)-8-(3,4,5-Trimethoxyphenyl)oxalyl-3,8-diaza-3-[2-(3,4-dimethoxyphenyl)ethyl]bicyclo[3.2.1]octan-2-one], the inhibition at 1 µM (Table 1) came to 3%.
Consider `COc1ccc(CCCN2C[C@H]3CC[C@@H](C2=O)N3C(=O)C(=O)c2cc(OC)c(OC)c(OC)c2)cc1OC` [Example 3, (1S,5R)-8-(3,4,5-Trimethoxyphenyl)oxalyl-3,8-diaza-3-[3-(3,4-dimethoxyphenyl)propyl]bicyclo[3.2.1]octan-2-one], for which, under “Table 1”, the inhibition at 1 µM is 26% and the affinity corresponds to a Ki of 380 nM.
On to `COc1ccc(CCCCN2CC3CCC(C2=O)N3C(=O)C(=O)c2cc(OC)c(OC)c(OC)c2)cc1OC` [Example 4, (1S,5R)-8-(3,4,5-Trimethoxyphenyl)oxalyl-3,8-diaza-3-[4-(3,4-dimethoxyphenyl)butyl]bicyclo[3.2.1]octan-2-one], for which the inhibition at 1 µM (Table 1) was found to be 15%.
Consider `COc1cc(CCCN2C[C@H]3CC[C@@H](C2=O)N3C(=O)C(=O)c2cc(OC)c(OC)c(OC)c2)cc(OC)c1OC` [Example 6, (1S,5R)-8-(3,4,5-Trimethoxyphenyl)oxalyl-3,8-diaza-3-[3-(3,4,5-trimethoxyphenyl)propyl]bicyclo[3.2.1]octan-2-one], for which, where the note is “Table 1”, the inhibition at 1 µM turned out to be 47% and the Ki amounted to 242 nM.
With `COc1cc(C(=O)C(=O)N2C3CCC2C(=O)N(CCCCc2ccccc2)C3)cc(OC)c1OC` [Example 7, (1S,5R)-8-(3,4,5-Trimethoxyphenyl)oxalyl-3,8-diaza-3-(4-phenylbutyl)bicyclo[3.2.1]octan-2-one], the inhibition at 1 µM (Table 1) amounted to 6%.
Regarding `COc1cc(C(=O)C(=O)N2C3CCC2C(=O)N(CCCOc2cccnc2)C3)cc(OC)c1OC` [Example 8, (1S,5R)-8-(3,4,5-Trimethoxyphenyl)oxalyl-3,8-diaza-3-(3-(3-pyridyloxy)propyl)-bicyclo[3.2.1]octan-2-one], where the note is “Table 1”, the inhibition at 1 µM came out at 98%.
In the case of `COc1ccc(CCCC(CCCc2ccccc2)N2CC3CCC(C2=O)N3C(=O)C(=O)c2cc(OC)c(OC)c(OC)c2)cc1OC` [Example 9, (1S,5R)-8-(3,4,5-Trimethoxyphenyl)oxalyl-3,8-diaza-3-[4-(3,4-dimethoxyphenyl)-1-(3-phenylpropyl)butyl]bicyclo[3.2.1]octan-2-one], under “Table 2”, the inhibition at 1 µM was determined as 1%.
The same measure, in the same setting: as for `COc1cc(C(=O)C(=O)N2C3CCC2C(=O)N(CC(CCCc2ccccc2)CCCc2ccccc2)C3)cc(OC)c1OC` [Example 10, (1S,5R)-8-(3,4,5-Trimethoxyphenyl)oxalyl-3,8-diaza-3-[5-phenyl-2-(3-phenyl-propyl)pentyl]bicyclo[3.2.1]-octan-2-one], the figure is 14%.
Same read-out and setting: as for `COc1cc(CCCC(CCCc2ccccc2)CN2CC3CCC(C2=O)N3C(=O)C(=O)c2cc(OC)c(OC)c(OC)c2)cc(OC)c1OC` [Example 11, (1S,5R)-8-(3,4,5-Trimethoxyphenyl)oxalyl-3,8-diaza-3-[2-(3-phenylpropyl)-5-(3,4,5-trimethoxyphenyl)pentyl]bicyclo[3.2.1]octan-2-one], the figure is 17%.
`COc1ccc(CCCC(CCCc2ccc(OC)c(OC)c2)CN2C[C@H]3CC[C@@H](C2=O)N3C(=O)C(=O)c2cc(OC)c(OC)c(OC)c2)cc1OC` [Example 12, (1S,5R)-8-(3,4,5-Trimethoxyphenyl)oxalyl-3,8-diaza-3-[5-(3,4-dimethoxyphenyl)-2-(3-(3,4-dimethoxyphenyl)propyl)pentyl]bicyclo[3.2.1]octan-2-one] came in with a Ki (Table 2) of 47 nM.
Same read-out and setting: as for `COc1ccc(CCC(Cc2ccc(OC)c(OC)c2)CN2C[C@H]3CC[C@@H](C2=O)N3C(=O)C(=O)c2cc(OC)c(OC)c(OC)c2)cc1OC` (stereo partly drawn) [Example 13, (1S,5R)-8-(3,4,5-Trimethoxyphenyl)oxalyl-3,8-diaza-3-[4-(3,4-dimethoxyphenyl)-2-((3,4-dimethoxyphenyl)methyl)butyl]bicyclo[3.2.1]octan-2-one], the figure is 122 nM; as for `COc1ccc(CCC(CCc2ccccc2)CN2C[C@H]3CC[C@@H](C2=O)N3C(=O)C(=O)c2cc(OC)c(OC)c(OC)c2)cc1OC` (stereo partly drawn) [Example 14, (1S,5R)-8-(3,4,5-Trimethoxyphenyl)oxalyl-3,8-diaza-3-[4-(3,4-dimethoxyphenyl)-2-(2-phenylethyl)butyl]-bicyclo[3.2.1]octan-2-one], 169 nM.
On to `COc1cc(CCCN2CC3CCCC(C2=O)N3C(=O)C(=O)c2cc(OC)c(OC)c(OC)c2)cc(OC)c1OC` (centres unmarked) [Example 15, 9-(3,4,5-Trimethoxyphenyl)oxalyl-3,9-diaza-3-[3-(3,4,5-trimethoxyphenyl)propyl]bicyclo[3.3.1]nonan-2-one], for which, under “Table 1”, the inhibition at 1 µM was determined as 44% and affinity was put at a Ki of 100 nM.
The corresponding values for `COc1ccc(CCCN2CC3CCCC(C2=O)N3C(=O)C(=O)c2cc(OC)c(OC)c(OC)c2)cc1OC` (centres unmarked) [Example 16, 9-(3,4,5-Trimethoxyphenyl)oxalyl-3,9-diaza-3-[3-(3,4-dimethoxyphenyl)propyl]bicyclo[3.3.1]nonan-2-one] are 76% and 150 nM.
The like results for `COc1ccc(CCCCN2CC3CCCC(C2=O)N3C(=O)C(=O)c2cc(OC)c(OC)c(OC)c2)cc1OC` (centres unmarked) [Example 17, 9-(3,4,5-Trimethoxyphenyl)oxalyl-3,9-diaza-3-[4-(3,4-dimethoxyphenyl)butyl]bicyclo[3.3.1]-nonan-2-one] were, in that order, 79% and 140 nM.
For the compound `COc1cc(C(=O)C(=O)N2C3CCCC2C(=O)N(CCCc2ccccc2)C3)cc(OC)c1OC` (centres unmarked) [Example 18, 9-(3,4,5-Trimethoxyphenyl)oxalyl-3,9-diaza-3-(3-phenylpropyl)bicyclo[3.3.1]nonan-2-one], under “Table 1”, the Ki worked out at 60 nM.
On the same count and under the same terms, as for `COc1cc(C(=O)C(=O)N2C3CCCC2C(=O)N(CCCCc2ccccc2)C3)cc(OC)c1OC` (centres unmarked) [Example 19, 9-(3,4,5-Trimethoxyphenyl)oxalyl-3,9-diaza-3-(4-phenylbutyl)bicyclo[3.3.1]nonan-2-one], the figure is 85 nM; as for `COc1cc(C(=O)C(=O)N2C3CCCC2C(=O)N(CCCCCc2ccccc2)C3)cc(OC)c1OC` (centres unmarked) [Example 20, 9-(3,4,5-Trimethoxyphenyl)oxalyl-3,9-diaza-3-(5-phenylpentyl)bicyclo[3.3.1]nonan-2-one], 152 nM.
With `COc1ccc(CCCC(CCCc2ccccc2)N2CC3CCCC(C2=O)N3C(=O)C(=O)c2cc(OC)c(OC)c(OC)c2)cc1OC` (centres unmarked) [Example 21, 9-(3,4,5-Trimethoxyphenyl)oxalyl-3,9-diaza-3-[4-(3,4-dimethoxyphenyl)-1-(3-phenylpropyl)butyl]bicyclo[3.3.1]nonan-2-one], for the setting “Table 2”, the inhibition at 1 µM was determined as 1%.
Still for that read-out and setting: as for `COc1cc(C(=O)C(=O)N2C3CCCC2C(=O)N(CC(CCCc2ccccc2)CCCc2ccccc2)C3)cc(OC)c1OC` (centres unmarked) [Example 22, 9-(3,4,5-Trimethoxyphenyl)oxalyl-3,9-diaza-3-[5-phenyl-2-(3-phenylpropyl)pentyl]bicyclo[3.3.1]nonan-2-one], the figure is 17%.
With `COc1cc(CCCC(CCCc2ccccc2)CN2CC3CCCC(C2=O)N3C(=O)C(=O)c2cc(OC)c(OC)c(OC)c2)cc(OC)c1OC` (centres unmarked) [Example 23, 9-(3,4,5-Trimethoxyphenyl)oxalyl-3,9-diaza-3-[2-(3-phenylpropyl)-5-(3,4,5-trimethoxyphenyl)pentyl]bicyclo[3.3.1]-nonan-2-one], under “Table 2”, the inhibition at 1 µM was found to be 81% and affinity was put at a Ki of 44 nM.
For `COc1ccc(CCCC(CCCc2ccc(OC)c(OC)c2)CN2CC3CCCC(C2=O)N3C(=O)C(=O)c2cc(OC)c(OC)c(OC)c2)cc1OC` (centres unmarked) [Example 24, 9-(3,4,5-Trimethoxyphenyl)oxalyl-3,9-diaza-3-[5-(3,4-dimethoxyphenyl)-2-(3-(3,4-dimethoxy-phenyl)propyl)pentyl]bicyclo-[3.3.1]nonan-2-one], the Ki (Table 2) worked out at 21 nM.
On the same count and under the same terms, as for `COc1ccc(CCC(Cc2ccc(OC)c(OC)c2)CN2CC3CCCC(C2=O)N3C(=O)C(=O)c2cc(OC)c(OC)c(OC)c2)cc1OC` (centres unmarked) [Example 25, 9-(3,4,5-Trimethoxyphenyl)oxalyl-3,9-diaza-3-[4-(3,4-dimethoxyphenyl)-2-((3,4-dimethoxy-phenyl)methyl)butyl]bicyclo-[3.3.1]nonan-2-one], the figure is 18 nM; as for `COc1ccc(CCC(CCc2ccccc2)CN2CC3CCCC(C2=O)N3C(=O)C(=O)c2cc(OC)c(OC)c(OC)c2)cc1OC` (centres unmarked) [Example 26, 9-(3,4,5-Trimethoxyphenyl)oxalyl-3,9-diaza-3-[4-(3,4-dimethoxyphenyl)-2-(2-phenylethyl)butyl]-bicyclo[3.3.1]nonan-2-one], 51 nM.
As to `COc1cc(C(F)(F)C(=O)N2C3CCC2C(=O)N(CCCc2ccccc2)C3)cc(OC)c1OC` [Example 27, (1S,5R)-8-(3,4,5-Trimethoxyphenyl)difluoroacetyl-3,8-diaza-3-(3-phenylpropyl)bicyclo[3.2.1]octan-2-one], under “Table 1”, the inhibition at 1 µM was 22%.
The same measure, in the same setting: as for `COc1ccc(CCCN2CC3CCC(C2=O)N3C(=O)C(F)(F)c2cc(OC)c(OC)c(OC)c2)cc1OC` [Example 28, (1S,5R)-8-(3,4,5-Trimethoxyphenyl)difluoroacetyl-3,8-diaza-3-[3-(3,4-dimethoxyphenyl)propyl]bicyclo[3.2.1]octan-2-one], the figure is 13%; as for `COc1ccc(CCCCN2CC3CCC(C2=O)N3C(=O)C(F)(F)c2cc(OC)c(OC)c(OC)c2)cc1OC` [Example 29, (1S,5R)-8-(3,4,5-Trimethoxyphenyl)difluoroacetyl-3,8-diaza-3-[4-(3,4-dimethoxyphenyl)butyl]bicyclo[3.2.1]octan-2-one], 8%.
